Legend:
[1] = system: total AKT (T-AKT) and phosphorylated AKT (P-AKT (S473)); test: Western blot of AKT degradation in BT474 cells; format: cell-based, human; conditions: for T-AKT and P-AKT protein degradation (western blot): 24 h, 1, 5 and 10 μM (12-13: 1, 3 and 10 μM); for P-AKT (S473) protein level (western blot): GDC-0068 at 1 μM; for T-AKT protein level (western blot): controls at 1 μM
[2] = system: P-PRAS40 (T246) and P-S6 (S240/244); test: Western blot of downstream signaling inhibition in BT474 cells; format: cell-based, human; conditions: 24 h; for inhibition of downstream signaling, P-PRAS40 and P-S6: compared with GDC-0068 (1 μM)

Cc1ncsc1-c1ccc(CNC(=O)[C@@H]2C[C@@H](O)CN2C(=O)[C@@H](NC(=O)CCCCCCCCCCNC(=O)CCNC[C@@H](C(=O)N2CCN(c3ncnc4c3[C@H](C)C[C@H]4O)CC2)c2ccc(Cl)cc2)C(C)(C)C)cc1 [Compound 11, (2S,4R)-1-((S)-2-(11-(3-(((S)-2-(4-Chlorophenyl)-3-(4-((5R,7R)-7-hydroxy-5-methyl-6,7-dihydro-5H-cyclopenta[d]pyrimidin-4-yl)-piperazin-1-yl)-3-oxopropyl)amino)propanamido)-undecanamido)-3,3-dimethylbutanoyl)-4-hydroxy-N-(4-(4-methyl-thiazol-5-yl)benzyl)pyrrolidine-2-carboxamide]
T-AKT and P-AKT protein degradation (western blot) [1]: near-complete degradation of T-AKT and P-AKT at 1 μM
hook effect in AKT degradation ([1]; 24 h, higher concentrations (up to 10 μM)): at 5 and 10 μM, a ″hook effect″ was observed
inhibition of downstream signaling, P-PRAS40 and P-S6 [2]: less effective than the parent inhibitor GDC-0068

Cc1ncsc1-c1ccc([C@H](C)NC(=O)[C@@H]2C[C@@H](O)CN2C(=O)[C@@H](NC(=O)CCCCCCCCCCNC(=O)CCNC[C@@H](C(=O)N2CCN(c3ncnc4c3[C@H](C)C[C@H]4O)CC2)c2ccc(Cl)cc2)C(C)(C)C)cc1 [Compound 12, (2S,4R)-1-((S)-2-(11-(3-(((S)-2-(4-Chlorophenyl)-3-(4-((5R,7R)-7-hydroxy-5-methyl-6,7-dihydro-5H-cyclopenta[d]pyrimidin-4-yl)-piperazin-1-yl)-3-oxopropyl)amino)propanamido)-undecanamido)-3,3-dimethylbutanoyl)-4-hydroxy-N-((S)-1-(4-(4-methylthiazol-5-yl)phenyl)ethyl)pyrrolidine-2-carboxamide]
T-AKT and P-AKT protein degradation (western blot) [1]: remarkable effects on degrading T-AKT and P-AKT
inhibition of downstream signaling, P-PRAS40 and P-S6 [2]: more profound inhibition of P-PRAS40 and P-S6 than 11

C[C@@H]1C[C@@H](O)c2ncnc(N3CCN(C(=O)[C@H](CNCCNC(=O)CCCCCCCCNc4cccc5c4C(=O)N(C4CCC(=O)NC4=O)C5=O)c4ccc(Cl)cc4)CC3)c21 (stereo partly drawn) [Compound 26, N-(2-(((S)-2-(4-chlorophenyl)-3-(4-((5R,7R)-7-hydroxy-5-methyl-6,7-dihydro-5H-cyclopenta[d]pyrimidin-4-yl)piperazin-1-yl)-3-oxopropyl)amino)ethyl)-9-((2-(2,6-dioxopiperidin-3-yl)-1,3-dioxoisoindolin-4-yl)amino)nonanamide]
P-AKT (S473) protein level (western blot) ([1]; 24 h): did not reduce the P-AKT level
T-AKT protein level (western blot) ([1]; 24 h): partially degraded T-AKT
inhibition of P-PRAS40 ([2]; 1 μM): as effectively as GDC-0068

CC(C)NC[C@@H](C(=O)N1CCN(c2ncnc3c2[C@H](C)C[C@H]3O)CC1)c1ccc(Cl)cc1 [GDC-0068, reference compound]
time course of T-AKT and P-AKT degradation ([1]; 1 μM, indicated times): no effect on the T-AKT protein level and increased the P-AKT protein level
P-AKT (S473) protein level (western blot) ([1]; 24 h): AKT hyperphosphorylation
T-AKT protein level (western blot) ([1]; 24 h): no detectable effect on the T-AKT protein level
inhibition of downstream signaling, P-PRAS40 and P-S6 [2]: effectively inhibited downstream signaling

From publication PMC8819633 (Journal of medicinal chemistry, 2021)
